This is an account of results in ChEMBL document CHEMBL1136856, “Synthesis of 5-isoxazol-5-yl-2'-deoxyuridines exhibiting antiviral activity against HSV and several RNA viruses” (Bioorg Med Chem Lett, 2009).

Broadly, the EC50 is the concentration that produces a half-maximal response.

Assay type in all cases: functional, organism-based
Assay [1] relates to Encephalomyocarditis virus. Put plainly: Antiviral activity against EMCV assessed as inhibition of virus-induced cytopathicity. The conditions noted are these: Cardiovirus A. Background: Cytopathic effects are the visible damage that an infection or toxin causes in cultured cells.
Assay [2] deals with Coronaviridae. Put plainly: Antiviral activity against Coronavirus assessed as inhibition of virus-induced cytopathicity.
In assay [3] the test system is Human alphaherpesvirus 2. Put plainly: Antiviral activity against HSV2 assessed as inhibition of virus-induced cytopathicity.
Assay [4] relates to Human immunodeficiency virus. The assay can be described thus: Antiviral activity against HIV assessed as inhibition of virus-induced cytopathicity.
Assay [5] concerns Coxsackievirus B3. The assay can be described thus: Antiviral activity against Coxsackievirus B3 assessed as inhibition of virus-induced cytopathicity. The conditions noted are these: Enterovirus B.
Assay [6] concerns Influenza A virus. The assay can be described thus: Antiviral activity against influenza A virus Panama assessed as inhibition of virus-induced cytopathicity.
Assay [7] relates to Vesicular stomatitis virus. Put plainly: Antiviral activity against VSV assessed as inhibition of virus-induced cytopathicity.
Assay [8] deals with Influenza A virus. The assay can be described thus: Antiviral activity against influenza A virus Seoul assessed as inhibition of virus-induced cytopathicity.
The test system of assay [9] is Influenza A virus. The assay can be described thus: Antiviral activity against influenza A virus Taiwan assessed as inhibition of virus-induced cytopathicity.
Assay [10] relates to Human alphaherpesvirus 1. Put plainly: Antiviral activity against HSV1 assessed as inhibition of virus-induced cytopathicity.

Values after ≈ are worked out from the molar mass of the structure shown. Active and inactive are the calls of the source. The rule behind the calls is not given here. Where only a bound is given, the exact number is not on record here.

Take `CC(=O)OC[C@H]1O[C@@H](n2cc(-c3cc(-c4ccc(C(C)(C)C)cc4)no3)c(=O)[nH]c2=O)C[C@@H]1OC(C)=O`: the 50% effective concentration (EC50) in assay [1] was 0.01 µg/mL (≈ 0.0195 µM); in assay [3], 0.03 µg/mL (≈ 0.0586 µM); in assay [5], 0.01 µg/mL (≈ 0.0195 µM); in [7], 0.03 µg/mL (≈ 0.0586 µM); in [10], above 0.06 µg/mL. Besides, the result in assay [2], in assay [4], in assay [6], in assay [8] and in [9] was inactive.

Regarding `Nc1ccn([C@@H]2O[C@H](CO)[C@@H](O)[C@@H]2O)c(=O)n1` [CYTARABINE], the EC50 in [3] worked out at 0.52 µg/mL (≈ 2.14 µM); in assay [10], 0.2 µg/mL (≈ 0.822 µM).

As for `CC(C)c1ccc(-c2cc(-c3cn([C@H]4C[C@H](O)[C@@H](CO)O4)c(=O)[nH]c3=O)on2)cc1`, the EC50 in assay [1] is 0.02 µg/mL (≈ 0.0484 µM); in [3] it was 0.09 µg/mL (≈ 0.218 µM); in assay [5], 0.03 µg/mL (≈ 0.0726 µM); in [7] it was above 0.07 µg/mL; in assay [10], 0.09 µg/mL (≈ 0.218 µM). Moreover, the result in assay [2], in assay [4], in assay [6], in [8] and in [9] was inactive.

With `CC(=O)OC[C@H]1O[C@@H](n2cc(-c3cc(-c4ccc(C(C)C)cc4)no3)c(=O)[nH]c2=O)C[C@@H]1OC(C)=O`, the EC50 amounted to 0.01 µg/mL (≈ 0.0201 µM) in assay [1]; 0.07 µg/mL (≈ 0.141 µM) in assay [3]; 0.01 µg/mL (≈ 0.0201 µM) in assay [5]; 0.03 µg/mL (≈ 0.0603 µM) in assay [7]; 0.08 µg/mL (≈ 0.161 µM) in assay [10]. Further, the result in [2], in assay [4], in assay [6], in assay [8] and in [9] was inactive.

With `NC(=O)c1ncn([C@@H]2O[C@H](CO)[C@@H](O)[C@H]2O)n1` [RIBAVIRIN], the EC50 in [1] is 0.02 µg/mL (≈ 0.0819 µM).

For `Nc1nc2c(ncn2COCCO)c(=O)[nH]1` [ACYCLOVIR], the figures for the EC50 in [3] and in [10] were 0.36 µg/mL (≈ 1.6 µM) and 0.18 µg/mL (≈ 0.799 µM), respectively.
